From patent US6355799B1, “Substituted benzene compounds, process for their preparation, and herbicidal and defoliant compositions containing them” (ISK Americas Incorporated, priority 1997, dated 2002)

Columns and labels:
Assay type in all cases: in vivo
[1] = system: velvetleaf (Abutilon theophrasti, ABUTH); assay: Pre-emerge test, greenhouse herbicide activity screening; details: pre-emerge, 14 days after application, rating scale 0-100
Summary of the method: (§1)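 Sandy loam pots; pre-emerge: sown 1 d pre-spray, surface-watered after, then bottom-watered. Post-emerge: sown 8–21 d before, 2–3 leaf stage, + 0.25% v/v NIS, bottom-watered. Acetone, 187 l/ha track spray, 15–1000 g ai/ha. 0–100 injury score, day 14.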

[2] = system: johnsongrass (Sorghum halepense, SORHA); assay: as above; details: pre-emerge, 14 days after application, rating scale 0-100
Summary of the method: as §1

[3] = system: green foxtail (Setaria viridis, SETVI); assay: as above; details: pre-emerge, 14 days after application, rating scale 0-100
Summary of the method: as §1

[4] = system: barnyardgrass (Echinochloa crus-galli, ECHCG); assay: as above; details: pre-emerge, 14 days after application, rating scale 0-100
Summary of the method: as §1

[5] = system: ivyleaf morningglory (Ipomoea hederacea, IPOHE); assay: as above; details: pre-emerge, 14 days after application, rating scale 0-100
Summary of the method: as §1

[6] = system: lambsquarters (Chenopodium album, CHEAL); assay: as above; details: pre-emerge, 14 days after application, rating scale 0-100
Summary of the method: as §1

[7] = system: large crabgrass (Digitaria sanguinalis, DIGSA); assay: as above; details: pre-emerge, 14 days after application, rating scale 0-100
Summary of the method: as §1

[8] = system: sicklepod (Cassia obtusifolia, CASOB); assay: as above; details: pre-emerge, 14 days after application, rating scale 0-100
Summary of the method: as §1

[9] = system: velvetleaf (Abutilon theophrasti, ABUTH); assay: Post-emerge test, greenhouse herbicide activity screening; details: rating scale 0-100 (0 no damage, 100 complete death), 14 days after application
Summary of the method: (§2)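 Fourteen days after spraying, crop and weed injury was graded visually from 0, no effect, to 100, every plant dead. Test substances were dissolved in acetone and applied at 15–1000 g ai/ha with a flat-fan nozzle. Application was either pre-emergence, one day after sowing, or post-emergence at the 2–3 leaf stage.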

[10] = system: johnsongrass (Sorghum halepense, SORHA); assay: as above; details: rating scale 0-100 (0 no damage, 100 complete death), 14 days after application
Summary of the method: as §2

[11] = system: green foxtail (Setaria viridis, SETVI); assay: as above; details: rating scale 0-100 (0 no damage, 100 complete death), 14 days after application
Summary of the method: as §2

[12] = system: barnyardgrass (Echinochloa crus-galli, ECHCG); assay: as above; details: rating scale 0-100 (0 no damage, 100 complete death), 14 days after application
Summary of the method: as §2

[13] = system: ivyleaf morningglory (Ipomoea hederacea, IPOHE); assay: as above; details: rating scale 0-100 (0 no damage, 100 complete death), 14 days after application
Summary of the method: as §2

[14] = system: common ragweed (Ambrosia artemisizfolia L., AMBEL); assay: as above; details: rating scale 0-100 (0 no damage, 100 complete death), 14 days after application
Summary of the method: as §2

[15] = system: lambsquarters (Chenopodium album, CHEAL); assay: as above; details: rating scale 0-100 (0 no damage, 100 complete death), 14 days after application
Summary of the method: as §2

[16] = system: large crabgrass (Digitaria sanguinalis, DIGSA); assay: as above; details: rating scale 0-100 (0 no damage, 100 complete death), 14 days after application
Summary of the method: as §2

[17] = system: sicklepod (Cassia obtusifolia, CASOB); assay: as above; details: rating scale 0-100 (0 no damage, 100 complete death), 14 days after application
Summary of the method: as §2

[18] = system: redroot pigweed (Amaranthus retroflexus, AMARE); assay: as above; details: rating scale 0-100 (0 no damage, 100 complete death), 14 days after application
Summary of the method: as §2

[19] = system: redroot pigweed (Amaranthus retroflexus, AMARE); assay: Pre-emerge test, greenhouse herbicide activity screening; details: pre-emerge, 14 days after application, rating scale 0-100
Summary of the method: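 Herbicidal damage is scored 0 (none) to 100 (complete plant death) two weeks after a simulated field spray. Rates span 15–1000 g ai/ha, delivered in acetone at 187 l/ha. For post-emergence treatments, plants have 2–3 leaves and the spray carries 0.25% v/v non-ionic surfactant.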

[20] = system: field corn (Zea mays L., var. Dekalb 535, CORN); assay: Pre-emerge test, crop safety; details: pre-emerge, 14 days after application, rating scale 0-100
Summary of the method: as §1

[21] = system: upland rice (Oryza sp., var. Tebonnet, RICE); assay: Pre-emerge test, crop safety; details: pre-emerge, 14 days after application, rating scale 0-100
Summary of the method: as §1

[22] = system: field corn (Zea mays L., var. Dekalb 535, CORN); assay: Post-emerge test, crop safety; details: rating scale 0-100 (0 no damage, 100 complete death), 14 days after application
Summary of the method: as §1

[23] = system: upland rice (Oryza sp., var. Tebonnet, RICE); assay: Post-emerge test, crop safety; details: rating scale 0-100 (0 no damage, 100 complete death), 14 days after application
Summary of the method: as §1

## COc1c(Cl)cc(F)c(-n2c(=O)cc(C(F)(F)F)n(C)c2=O)c1CC(C)(Cl)C(=O)OCC1CCCO1 (stereo not shown) [14-49]
[1]; 63 g ai/ha
  phytotoxicity rating ABUTH: 100
[1]; 250 g ai/ha
  phytotoxicity rating ABUTH: 100
[2]; 63 g ai/ha
  phytotoxicity rating SORHA: 20
[2]; 250 g ai/ha
  phytotoxicity rating SORHA: 90
[3]; 63 g ai/ha
  phytotoxicity rating SETVI: 50
[3]; 250 g ai/ha
  phytotoxicity rating SETVI: 100
[4]; 63 g ai/ha
  phytotoxicity rating ECHCG: 0
[4]; 250 g ai/ha
  phytotoxicity rating ECHCG: 100
[5]; 63 g ai/ha
  phytotoxicity rating IPOHE: 50
[5]; 250 g ai/ha
  phytotoxicity rating IPOHE: 90
[6]; 63 g ai/ha
  phytotoxicity rating CHEAL: 100
[6]; 250 g ai/ha
  phytotoxicity rating CHEAL: 100
[7]; 63 g ai/ha
  phytotoxicity rating DIGSA: 50
[7]; 250 g ai/ha
  phytotoxicity rating DIGSA: 100
[8]; 63 g ai/ha
  phytotoxicity rating CASOB: 0
[8]; 250 g ai/ha
  phytotoxicity rating CASOB: 70
[9]; Rate 63 g ai/ha
  Post-emerge Herbicidal Activity, phytotoxicity rating ABUTH: 100
[9]; Rate 250 g ai/ha
  Post-emerge Herbicidal Activity, phytotoxicity rating ABUTH: 100
[10]; Rate 63 g ai/ha
  Post-emerge Herbicidal Activity, phytotoxicity rating SORHA: 70
[10]; Rate 250 g ai/ha
  Post-emerge Herbicidal Activity, phytotoxicity rating SORHA: 95
[11]; Rate 63 g ai/ha
  Post-emerge Herbicidal Activity, phytotoxicity rating SETVI: 50
[11]; Rate 250 g ai/ha
  Post-emerge Herbicidal Activity, phytotoxicity rating SETVI: 100
[12]; Rate 63 g ai/ha
  Post-emerge Herbicidal Activity, phytotoxicity rating ECHCG: 100
[12]; Rate 250 g ai/ha
  Post-emerge Herbicidal Activity, phytotoxicity rating ECHCG: 100
[13]; Rate 63 g ai/ha
  Post-emerge Herbicidal Activity, phytotoxicity rating IPOHE: 100
[13]; Rate 250 g ai/ha
  Post-emerge Herbicidal Activity, phytotoxicity rating IPOHE: 100
[14]; Rate 63 g ai/ha
  Post-emerge Herbicidal Activity, phytotoxicity rating AMBEL: 100
[14]; Rate 250 g ai/ha
  Post-emerge Herbicidal Activity, phytotoxicity rating AMBEL: 100
[15]; Rate 63 g ai/ha
  Post-emerge Herbicidal Activity, phytotoxicity rating CHEAL: 100
[15]; Rate 250 g ai/ha
  Post-emerge Herbicidal Activity, phytotoxicity rating CHEAL: 100
[16]; Rate 63 g ai/ha
  Post-emerge Herbicidal Activity, phytotoxicity rating DIGSA: 70
[16]; Rate 250 g ai/ha
  Post-emerge Herbicidal Activity, phytotoxicity rating DIGSA: 95
[17]; Rate 63 g ai/ha
  Post-emerge Herbicidal Activity, phytotoxicity rating CASOB: 70
[17]; Rate 250 g ai/ha
  Post-emerge Herbicidal Activity, phytotoxicity rating CASOB: 95
[18]; Rate 63 g ai/ha
  Post-emerge Herbicidal Activity, phytotoxicity rating AMARE: 100
[18]; Rate 250 g ai/ha
  Post-emerge Herbicidal Activity, phytotoxicity rating AMARE: 100
[19]; 63 g ai/ha
  phytotoxicity rating AMARE: 100
[19]; 250 g ai/ha
  phytotoxicity rating AMARE: 100
[20]; 63 g ai/ha
  phytotoxicity rating CORN: 10
[20]; 250 g ai/ha
  phytotoxicity rating CORN: 95
[21]; 63 g ai/ha
  phytotoxicity rating RICE: 40
[21]; 250 g ai/ha
  phytotoxicity rating RICE: 95
[22]; Rate 63 g ai/ha
  Post-emerge phytotoxicity rating CORN (crop damage): 80
[22]; Rate 250 g ai/ha
  Post-emerge phytotoxicity rating CORN (crop damage): 100
[23]; Rate 63 g ai/ha
  Post-emerge phytotoxicity rating RICE (crop damage): 50
[23]; Rate 250 g ai/ha
  Post-emerge phytotoxicity rating RICE (crop damage): 95
